The values that follow come from patent US20120059038A1, “[…]” (Astellas Pharma Inc., priority 2009, published 2012).

≈ marks a conversion by molar mass, not a printed value. Bounds are passed on as bounds.

Data set [1] relates to dormantfungi present around infections. The note with it: reported in Mycoses, 46, pp. 505-510, 2003; cited from earlier work.
For data set [2], the system named is Alternaria alternata AHU9258. Nature of the data set: Antifungal activity, broth microdilution method. The class given is cell-based. The note with it: minimum inhibitory concentration. As to the method:
(§1) Antifungal activities for the following test fungi were determined by a broth microdilution method (Hikaru Kume and Toshikazu Yamazaki, Clinical Microbiology, Vol. 21, No. 5, pp. 573-580, 1994).
In general terms: Dilution methods test growth across graded concentrations, often in twofold steps.

For data set [3], the system named is Cryptococcus neoformans FP1739. As to the kind of experiment: Antifungal activity, broth microdilution method. The class given is cell-based. The note with it: minimum inhibitory concentration. As to the method: as §1
Data set [4] has as its system Trichophyton rubrum FP596. Nature of the data set: Antifungal activity, broth microdilution method. The data set is classed as cell-based. As to conditions: minimum inhibitory concentration. The procedure:
as §1

Data set [5] has as its system Trichophyton mentagrophytes FP2103. As to the kind of experiment: Antifungal activity, broth microdilution method. The class given is cell-based. The note with it: minimum inhibitory concentration. The procedure:
as §1

The test system of data set [6] is Aspergillus fumigatus FP1305. As to the kind of experiment: Antifungal activity, broth microdilution method. The class given is cell-based. The note with it: minimum inhibitory concentration. As to the method: as §1
Data set [7] relates to Complex III. As to the kind of experiment: Complex III inhibitory activity, ubiquinol-cytochrome c reductase assay using isolated mitochondrial fraction. As to conditions: mitochondrial fraction of Trichophyton mentagrophytes FP2103; kind of value (IC50 or other) not stated. The class given is biochemical. As to the method:
A medium (0.1% glucose, 0.2% bacto tryptone, 0.2% K2HPO4, 0.005% MgSO4.7H2O and 0.005% CaC12.2H2O) was poured into an Erlenmeyer flask and sterilized by autoclaving. Conidiophores of Trichophyton mentagrophytes FP2103 were inoculated into the medium, and cultured at 30° C. for 40 hours while shaking on a rotary shaker. The fungus was collected from the cultural solution and dipped in a cell wall lysis enzyme solution {1 M KC1, 25 mM CaC12.2H2O, 10 mM MgC12.6H2O, 5 mg/mL zymolyase-100T (Seikagaku Corporation), 1 mg/mL chitinase (Sigma) and 5 mg/mL drieselase (Sigma)}, and the resulting mixture was stirred at 30° C. for 4 hours. The enzyme treatment solution was filtered through glass funnel filled with gauze to obtain protoplast. A mitochondrial fraction was isolated from the protoplast by using a Mitochondria Isolation Kit (BioChain Institute, Inc.). The Complex III inhibitory activity was measured in the ubiquinol-cytochrome c reductase assay using the isolated mitochondrial fraction (The Journal of Biological Chemistry, 279, pp. 8708-8714, 2004). As a result, the compound A inhibited the complex III at 0.9 ng/mL.

Data set [8] can be described thus: Cytotoxicity to EL-4 cells, cell counting kit. As to conditions: mouse, EL-4 mouse T lymphoma cells, 37° C. The class given is cell-based, mouse. As to the method:
(§2) Cytotoxicity was evaluated by adding a test drug to mouse T lymphoma cell line EL-4 at various concentrations, incubating the cells in a CO2 incubator at 37° C. for 72 hours, counting the cells using a cell counting kit (Wako Pure Chemical Industries, Ltd.), and calculating IC50 values.

Data set [9] relates to mouse T lymphoma cell line EL-4. Nature of the data set: Cytotoxicity to EL-4 cells, cell counting kit. The class given is cell-based. The note with it: 37° C., 72 hours. The procedure: as §2
Background: Formazan colour is commonly taken as a measure of viable cells.

Take `CN(C/C=C/C#CC(C)(C)C)Cc1cccc2ccccc12` [Terbinafine]: in data set [1], the “activity against dormant fungi” value is “weak activity”.

By MIC is commonly meant the lowest concentration found to suppress growth. A higher MIC goes with weaker potency. For orientation: IC50 means the midpoint of a concentration-inhibition curve. A higher IC50 goes with weaker potency. On to `CCC(C)CC(C)CCC1CCCC(c2c(O)c(C3C(O)C(O)C(O)C3O)cn(C)c2=O)O1` (stereo not drawn) [compound A], for which the MIC in data set [2] was found to be 6.3 µg/mL (≈ 13.5 µM); in [3], 1.3 µg/mL (≈ 2.78 µM); in [4], 0.1 µg/mL (≈ 0.214 µM); in data set [5] it was 0.1 µg/mL (≈ 0.214 µM); in [6], 25 µg/mL (≈ 53.5 µM). Besides, in data set [7], the “concentration at which complex III was inhibited” value is given as 0.9 ng/mL. Further, the IC50 at 72 h in [8] was 6.2 µg/mL (≈ 13.3 µM). Besides, the “concentrations showing no cytotoxic effect” value in data set [9] is not above 3100 ng/mL.
